# “And” between values parts separate entries of the source, which are not always exact repeats. Equal entries are not always repeated. “Also recorded” adds a separate entry of the source.
# What was measured:
# [1] = Pharmacokinetics and brain penetration, plasma and brain by LC-MS/MS; type: in vivo, BALB/c mice
# Method: After i.p. and i.v. administration at 20 mg/kg to BALB/c mice, plasma and brain concentrations were determined by LC-MS/MS.
# HDAC7 = target: T1, HDAC7 (Homo sapiens, UniProt Q8WUI4); test: HDAC7 fluorogenic activity assay; settings: Repeat1/Repeat2, listed as OA2
# T1 sequence (Q8WUI4 518-952 limits assumed): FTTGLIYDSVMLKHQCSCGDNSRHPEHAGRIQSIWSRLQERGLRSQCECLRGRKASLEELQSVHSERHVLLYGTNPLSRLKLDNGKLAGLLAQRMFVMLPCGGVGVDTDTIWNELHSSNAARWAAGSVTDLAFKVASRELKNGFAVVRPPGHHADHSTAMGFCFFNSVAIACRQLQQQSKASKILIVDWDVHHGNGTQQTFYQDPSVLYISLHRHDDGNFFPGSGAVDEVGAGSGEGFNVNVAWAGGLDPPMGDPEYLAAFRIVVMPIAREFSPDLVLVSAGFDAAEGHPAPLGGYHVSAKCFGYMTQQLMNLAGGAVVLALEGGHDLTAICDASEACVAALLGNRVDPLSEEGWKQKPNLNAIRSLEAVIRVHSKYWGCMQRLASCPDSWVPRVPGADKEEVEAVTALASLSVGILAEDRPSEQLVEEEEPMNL
# Aβ42-infused mice = test: Contextual and cued fear conditioning in Aβ-infused mice (YF2); type: in vivo
# Method: Contextual and cued fear conditioning was performed to assess whether the compound is capable of ameliorating amyloid-beta (Aβ) induced memory defect. Aβ is a peptide which is elevated in Alzheimer's disease. The hippocampus plays a key role in contextual memory and in Alzheimer's Disease. This type of cognitive test is much faster than other behavioral tasks that require multiple days of training and testing [Q1, Q2]; each herein incorporated by reference in its entirety. The conditioning chamber was in a sound-attenuating box. A clear Plexiglas window allowed the experimenter to film the mouse performance with a camera placed on a tripod and connected to the Freezeframe software (MED Ass. Inc.). To provide background white noise (72 dB), a single computer fan was installed in one of the sides of the sound-attenuating chamber. […] The floor was removable, and after each experimental subject, we cleaned it with 75% ethanol and then with water. Only one animal at a time was present in the experimentation room.
# For the cued and contextual conditioning experiments, mice were placed in the conditioning chamber for 2 min before the onset of a discrete tone (CS) (a sound that lasted 30 sec at 2800 Hz and 85 dB). In the last 2 sec of the CS, mice were given a foot shock (US) of 0.8 mA for 2 sec through the bars of the floor. […] Freezing behavior, defined as the absence of all movement except for that necessitated by breathing, was scored using the Freezeview software.
# To evaluate contextual fear learning, freezing was measured for 5 min (consecutively) in the chamber in which the mice was trained 24 hr after training. To evaluate cued fear learning, following contextual testing, the mice were placed in a novel context (triangular cage with smooth flat floor) for 2 min (pre-CS test), after which they were exposed to the CS for 3 min (CS test), and freezing was measured. Sensory perception of the shock was determined through threshold assessment. […] Initially, a […] shock was delivered for 1 sec, and the animal behavior was evaluated for flinching, jumping, and vocalization. […]
# p300 = target: T2, p300 (Homo sapiens, UniProt Q09472); test: In vitro HAT activation assay, p300; type: biochemical; settings: in vitro assays; FIG. 72
# T2 construct: we will use the catalytic domain of human CBP, PCAF, p300 and GCNS (Enzo Life Sci., USA); purchased Enzo Life Sci
# T2 sequence (Q09472 1287-1663 limits assumed): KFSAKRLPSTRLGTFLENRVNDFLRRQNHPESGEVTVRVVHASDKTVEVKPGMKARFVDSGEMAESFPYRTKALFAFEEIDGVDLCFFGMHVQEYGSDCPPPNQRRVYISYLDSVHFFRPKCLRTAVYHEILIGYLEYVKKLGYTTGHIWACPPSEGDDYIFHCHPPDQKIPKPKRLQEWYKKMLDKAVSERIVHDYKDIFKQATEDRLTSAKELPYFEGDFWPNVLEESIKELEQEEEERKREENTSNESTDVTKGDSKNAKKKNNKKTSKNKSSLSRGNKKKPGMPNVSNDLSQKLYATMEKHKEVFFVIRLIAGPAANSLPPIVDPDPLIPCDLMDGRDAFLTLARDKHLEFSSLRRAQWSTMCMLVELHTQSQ
# Text: Compounds will be tested for HAT activator activity first, using the HAT Assay kit from Active Motif (USA, CA). For this assay, we will use the catalytic domain of human CBP, PCAF, p300 and GCNS (Enzo Life Sci., USA). The catalytic domains for the remaining HATs will be produced using New England Biolabs K. lactis Protein Expression Kit. […] When assayed against all other HATs, they must show at least a 50 fold greater potency towards CBP and/or PCAF.
# [2] = IP administration 20 mg/kg, brain
# [3] = IV administration 20 mg/kg, brain
smiles,measurement,setting,value
CCOc1cccc(OCCN(C)C)c1C(=O)Nc1ccc(Cl)c(C(F)(F)F)c1 [YF2],AUC0-t,[1]; [2],6493 ng·h/g
same,AUC0-∞,[1]; [2],6564 ng·h/g
same,F,[1]; [2],29.2%
same,F,"[1]; IP administration 20 mg/kg, plasma",41.0%
same,AUC0-t,[1]; [3],22222 ng·h/g
same,AUC0-∞,[1]; [3],22581 ng·h/g
same,% Activity,HDAC7; OA2 Log[nM] 0.5,103.11% and 97.69%
same,% Activity,HDAC7; OA2 Log[nM] 1.0,91.37% and 91.47%
same,% Activity,HDAC7; OA2 Log[nM] 1.5,101.63% and 104.98%
same,% Activity,HDAC7; OA2 Log[nM] 2.0,104.61% and 97.68%
same,% Activity,HDAC7; OA2 Log[nM] 2.5,95.80% and 95.75%
same,% Activity,HDAC7; OA2 Log[nM] 3.0,96.02% and 98.69%
same,% Activity,HDAC7; OA2 Log[nM] 3.5,100.73% and 92.77%
same,% Activity,HDAC7; OA2 Log[nM] 4.0,90.73% and 101.73%
same,% Activity,HDAC7; OA2 Log[nM] 4.5,95.78% and 99.80%
same,% Activity,HDAC7; OA2 Log[nM] 5.3,96.89% and 100.04%
same,"contextual memory, compound alone","Aβ42-infused mice; 20 mg/kg i.p., no Aβ",did not affect
same,contextual fear memory deficit (freezing time),"Aβ42-infused mice; Aβ42-infused mice, i.p. 20 mg/kg 2 hrs or 5 mg/kg 30 min before the electric shock",ameliorated; also recorded: dramatically increasing
same,cued memory,"Aβ42-infused mice; different groups (vehicle, YF2, Aβ, YF2 plus Aβ)",not changed
same,effect on p300 activity,p300,did not interfere; also recorded: increases p300 activity
